Molecular target: Recombinant human HSD17B13 enzyme (Homo sapiens (Human), UniProt Q7Z5P4)
Assay: HSD17b13 NAD(P)H-Glo Biochemical Assay
Settings: for IC50: 50 uM estradiol, 1 mM NAD+, read-out: HSD17β13 IC50
Outline: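 Luminescent NAD(P)H-Glo detection (1 h, RT) quantified cofactor reduction after a 3 h, 37° C reaction of human HSD17B13 with estradiol (50 uM final) and NAD+ (1 mM final). Compounds were first pre-incubated 20 min at RT with enzyme in Tris pH 7.4 buffer containing Tween-20 and BSA.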

Chain of Recombinant human HSD17B13 enzyme (Q7Z5P4 20-300): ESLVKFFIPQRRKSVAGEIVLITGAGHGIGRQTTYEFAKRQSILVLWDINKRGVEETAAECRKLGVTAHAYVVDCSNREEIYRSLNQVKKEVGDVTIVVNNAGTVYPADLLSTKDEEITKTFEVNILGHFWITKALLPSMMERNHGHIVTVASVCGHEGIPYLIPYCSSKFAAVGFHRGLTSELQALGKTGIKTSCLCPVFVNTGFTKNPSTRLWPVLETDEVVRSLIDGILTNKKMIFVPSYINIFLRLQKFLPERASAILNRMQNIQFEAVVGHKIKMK

SMILES	IC50 [nM]	other results
CC(=O)N1CC(Oc2ccc3c(cnn3-c3cc(O)c(F)c(F)c3)c2)C1 [Compound 24.01, 1-(3-((1-(3,4-Difluoro-5-hydroxyphenyl)-1H-indazol-5-yl)oxy)azetidin-1-yl)ethan-1-one]	100 to 1000	–
CS(=O)(=O)N1CC(Oc2ccc3c(cnn3-c3cc(O)c(F)c(F)c3)c2)C1 [Compound 25, 2,3-Difluoro-5-(5-((1-(methylsulfonyl)azetidin-3-yl)oxy)-1H-indazol-1-yl)phenol]	100 to 1000	–
CS(=O)(=O)N1CCC(Oc2ccc3c(cnn3-c3cc(O)c(F)c(F)c3)c2)CC1 [Compound 25.01, 2,3-Difluoro-5-(5-((1-(methyl-sulfonyl)piperidin-4-yl)oxy)-1H-indazol-1-yl)phenol]	1000 to 30000	–
CC(=O)N1CCC(c2ccc3c(cnn3-c3ccc(F)c(O)c3)c2)CC1 [Compound 26, 1-(4-(1-(4-Fluoro-3-hydroxyphenyl)-1H-indazol-5-yl)piperidin-1-yl)ethan-1-one]	1000 to 30000	–
CS(=O)(=O)N1CCC(c2ccc3c(cnn3-c3cc(O)c(F)c(F)c3)c2)CC1 [Compound 27, 2,3-Difluoro-5-(5-(1-(methylsulfonyl)piperidin-4-yl)-1H-indazol-1-yl)phenol]	< 100	–
CS(=O)(=O)N1CCC(C(=O)O)(c2ccc3c(cnn3-c3cc(O)c(F)c(F)c3)c2)CC1 [Compound 28, 4-(1-(3,4-Difluoro-5-hydroxyphenyl)-1H-indazol-5-yl)-1-(methylsulfonyl)piperidine-4-carboxylic Acid]	–	inhibition at 30 µM (read-out: HSD17β13 inhibition at 30 uM): 49%
CNC(=O)C1(c2ccc3c(cnn3-c3cc(O)c(F)c(F)c3)c2)CCN(S(C)(=O)=O)CC1 [Compound 29, 4-(1-(3,4-Difluoro-5-hydroxyphenyl)-1H-indazol-5-yl)-N-methyl-1-(methylsulfonyl)piperidine-4-carboxamide]	1000 to 30000	–
CN(C)C(=O)C1(c2ccc3c(cnn3-c3cc(O)c(F)c(F)c3)c2)CCN(S(C)(=O)=O)CC1 [Compound 29.01, 4-(1-(3,4-Difluoro-5-hydroxy-phenyl)-1H-indazol-5-yl)-N,N-dimethyl-1-(methyl-sulfonyl)piperidine-4-carbox-amide]	–	inhibition at 10 µM (read-out: HSD17β13 inhibition at 10 uM): < 20%
O=S(=O)(c1ccc2c(cnn2-c2cc(O)c(F)c(F)c2)c1)N1CCCCC1 [Compound 30, 2,3-Difluoro-5-(5-(piperidin-1-ylsulfonyl)-1H-indazol-1-yl)phenol]	1000 to 30000	–
CS(=O)(=O)N1CCN(c2ccc3c(cnn3-c3cc(C(F)(F)F)cc(O)n3)c2)CC1 [Compound 31, 6-(5-(4-(Methylsulfonyl)piperazin-1-yl)-1H-indazol-1-yl)-4-(trifluoromethyl)pyridin-2-ol]	100 to 1000	–

Now from value to molecule, other results behind:

IC50 [nM]	SMILES	other results
1000 to 30000	CS(=O)(=O)N1CCC(c2ccc3c(cnn3-c3ccc(F)c(O)c3)c2)CC1 [Compound 26.01, 2-Fluoro-5-(5-(1-(methyl-sulfonyl)piperidin-4-yl)-1H-indazol-1-yl)phenol]	–
100 to 1000	CNC(=O)N1CCC(c2ccc3c(cnn3-c3ccc(F)c(O)c3)c2)CC1 [Compound 26.02, 4-(1-(4-Fluoro-3-hydroxy-phenyl)-1H-indazol-5-yl)-N-methylpiperidine-1-carboxamide]	–
1000 to 30000	CS(=O)(=O)N1CCC(c2cc3cnn(-c4cc(O)c(F)c(F)c4)c3cc2Cl)CC1 [Compound 27.01, 5-(6-Chloro-5-(1-(methyl-sulfonyl)piperidin-4-yl)-1H-indazol-1-yl)-2,3-difluoro-phenol]	–
1000 to 30000	CS(=O)(=O)N1CCC(CO)(c2ccc3c(cnn3-c3cc(O)c(F)c(F)c3)c2)CC1 [Compound 28.01]	–
100 to 1000	COCC1(c2ccc3c(cnn3-c3cc(O)c(F)c(F)c3)c2)CCN(S(C)(=O)=O)CC1 [Compound 28.02, 2,3-Difluoro-5-(5-(4-(meth-oxymethyl)-1-(methylsul-fonyl)piperidin-4-yl)-1H-indazol-1-yl)phenol]	–
1000 to 30000	CC1(c2ccc3c(cnn3-c3cc(O)c(F)c(F)c3)c2)CCN(S(C)(=O)=O)CC1 [Compound 28.03, 2,3-Difluoro-5-(5-(4-methyl-1-(methylsulfonyl)piperidin-4-yl)-1H-indazol-1-yl)phenol]	–
1000 to 30000	CS(=O)(=O)N1CCC(C#N)(c2ccc3c(cnn3-c3cc(O)c(F)c(F)c3)c2)CC1 [Compound 28.04, 4-(1-(3,4-Difluoro-5-hydroxy-phenyl)-1H-indazol-5-yl)-1-(methylsulfonyl)piperidine-4-carbonitrile]	–
1000 to 30000	Cc1cc(O)c(F)c(-n2ncc3cc(N4CCN(S(C)(=O)=O)CC4)ccc32)c1 [Compound 28.05, 2-Fluoro-5-methyl-3-(5-(4-(methylsulfonyl)piperazin-1-yl)-1H-indazol-1-yl)phenol]	–
1000 to 30000	CS(=O)(=O)N1CCN(c2ccc3c(cnn3-c3nccc(O)c3F)c2)CC1 [Compound 28.06, 3-Fluoro-2-(5-(4-(methyl-sulfonyl)piperazin-1-yl)-1H-indazol-1-yl)pyridin-4-ol]	–
100 to 1000	CS(=O)(=O)N1CCN(c2ccc3c(cnn3-c3cc(O)cc(C(F)(F)F)c3)c2)CC1 [Compound 28.07, 3-(5-(4-(Methylsulfonyl)-piperazin-1-yl)-1H-indazol-1-yl)-5-(trifluoromethyl)phenol]	–
1000 to 30000	CS(=O)(=O)N1CCN(c2cc3cnn(-c4cc(O)c(F)c(C(F)(F)F)c4)c3nn2)CC1 [Compound 28.08, 2-Fluoro-5-(5-(4-(methyl-sulfonyl)piperazin-1-yl)-1H-pyrazolo[3,4-c]pyridazin-1-yl)-3-(trifluoromethyl)phenol]	–
100 to 1000	O=S(=O)(c1ccc2c(cnn2-c2cc(O)c(F)c(F)c2)c1)N1CCOCC1 [Compound 30.01, 2,3-Difluoro-5-(5-(morpholinosulfonyl)-1H-indazol-1-yl)phenol]	–
1000 to 30000	CS(=O)(=O)N1CCN(c2ccc3nn(-c4cc(C(F)(F)F)cc(O)n4)cc3c2)CC1 [Compound 31.01, 6-(5-(4-(Methylsulfonyl)-piperazin-1-yl)-2H-indazol-2-yl)-4-(trifluoromethyl)-pyridin-2-ol]	–
1000 to 30000	CS(=O)(=O)N1CCN(c2ccc3c(cnn3-c3cc(O)cc(C(F)(F)F)n3)c2)CC1 [Compound 31.02, 2-(5-(4-(Methylsulfonyl)-piperazin-1-yl)-1H-indazol-1-yl)-6-(trifluoromethyl)-pyridin-4-ol]	–
1000 to 30000	CS(=O)(=O)N1CCN(c2ccc3nn(-c4cc(O)cc(C(F)(F)F)n4)cc3c2)CC1 [Compound 31.03, 2-(5-(4-(Methylsulfonyl)-piperazin-1-yl)-2H-indazol-2-yl)-6-(trifluoromethyl)-pyridin-4-ol]	–

Source: patent US20240034736A1, “HSD17B13 INHIBITORS AND USES THEREOF” (FL2022-001, Inc., priority 2020, published 2024)
